Test results as given in article PMC10604187 (Antioxidants, 2023).
Read-outs that look alike come from different tables or passages of the source.

Experiments:
mushroom tyrosinase [1] = target: T1, mushroom tyrosinase (Agaricus bisporus, UniProt C7FF04); assay: Mushroom tyrosinase inhibitory assay, diphenolase activity (L-dopa substrate); format: biochemical; settings: vs kojic acid
Experimental: The effect of the analogs on enzyme inhibition was investigated in the presence of L-dopa and L-tyrosine. […] After incubating the assay mixture for 0.5 h at 37 °C, the amounts of dopachrome produced during the incubation time were evaluated by measuring the absorbances of each well at 475 nm using a VersaMax^TM microplate reader (Molecular Devices, Sunnyvale, CA, USA).
Target sequence in this assay (C7FF04 2-392): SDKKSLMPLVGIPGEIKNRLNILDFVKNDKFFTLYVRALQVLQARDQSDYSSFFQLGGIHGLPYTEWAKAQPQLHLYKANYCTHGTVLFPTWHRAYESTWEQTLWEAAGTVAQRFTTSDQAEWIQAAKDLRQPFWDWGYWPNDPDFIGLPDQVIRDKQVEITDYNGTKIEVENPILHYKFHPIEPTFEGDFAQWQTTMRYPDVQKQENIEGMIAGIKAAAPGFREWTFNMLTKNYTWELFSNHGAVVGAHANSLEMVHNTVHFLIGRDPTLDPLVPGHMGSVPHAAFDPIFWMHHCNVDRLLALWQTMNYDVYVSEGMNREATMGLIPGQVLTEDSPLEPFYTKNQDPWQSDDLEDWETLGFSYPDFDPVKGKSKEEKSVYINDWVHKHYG

HEK-293 cells = assay: Cell viability (EZ-Cytox) assay in HEK-293 cells; format: cell-based, human; settings: 40 μM (maximum concentration), 24 h
Experimental: HEK-293 cells were obtained from American Type Culture Collection (ATCC; Manassas, VA, USA). Trypsin, streptomycin, fetal bovine serum (FBS), phosphate-buffered saline (PBS), penicillin, and Dulbecco’s modified Eagle’s medium (DMEM) for HEK-293 cell culture were purchased from Thermo Fisher Scientific (Carlsbad, CA, USA). HEK-293 cells were cultured in a DMEM solution containing penicillin (100 IU/mL), 10% heat-inactivated FBS, and streptomycin (100 µg/mL) in a 5% CO2 environment at 37 °C.
Cytotoxicity assays were performed using an EZ-Cytox assay (EZ-1000, DoGenBio, Seoul, Republic of Korea) in HEK-293 cells. Briefly, 96-well plates containing HEK-293 cells at a density of 1 × 10^4 cells per well were cultured in a 5% CO2 environment at 37 °C for 24 h. After 20 h, cells were treated with 2-MBI analogs 1−10 at 4 different concentrations (final concentration: 0, 2.5, 10, and 40 µM) and incubated for 24 h at 37 °C in a 5% CO2 environment. Then, 10 µL aliquot of the EZ-Cytox solution was added to each well. After 2 h incubation at 37 °C, the absorbance of each well was measured using a microplate reader (VersaMax®; Molecular Devices) at 450 nm.

mushroom tyrosinase [2] = target: T1, mushroom tyrosinase; assay: biochemical; settings: for mode of tyrosinase inhibition: Lineweaver–Burk plots, L-dopa
Experimental: Briefly, a dimethyl sulfoxide (DMSO) solution (10 µL) containing test analogs (final concentrations: 0, 5, 10, and 20 nM) was added to the wells of a 96-well plate containing mushroom tyrosinase (20 µL, 200 units/mL) and an aqueous solution (170 µL) consisting of L-dopa (final concentrations: 0.125, 0.25, 0.5, 1, 2, 4, and 8 mM) and phosphate buffer (final concentration: 14.7 mM, pH 6.5). The increase in the absorbance at 475 nm (ΔOD475/min) was measured using a VersaMax^TM microplate reader to determine the initial rate of dopachrome generation. The maximal velocity (Vmax) was determined from the y-axis intercept values of the Lineweaver–Burk plots obtained at seven different L-dopa concentrations. Dixon plots were obtained from Lineweaver–Burk plots for inhibitors by plotting the reciprocal of the reaction velocity against the inhibitor concentration.
Target sequence in this assay (C7FF04 1-392): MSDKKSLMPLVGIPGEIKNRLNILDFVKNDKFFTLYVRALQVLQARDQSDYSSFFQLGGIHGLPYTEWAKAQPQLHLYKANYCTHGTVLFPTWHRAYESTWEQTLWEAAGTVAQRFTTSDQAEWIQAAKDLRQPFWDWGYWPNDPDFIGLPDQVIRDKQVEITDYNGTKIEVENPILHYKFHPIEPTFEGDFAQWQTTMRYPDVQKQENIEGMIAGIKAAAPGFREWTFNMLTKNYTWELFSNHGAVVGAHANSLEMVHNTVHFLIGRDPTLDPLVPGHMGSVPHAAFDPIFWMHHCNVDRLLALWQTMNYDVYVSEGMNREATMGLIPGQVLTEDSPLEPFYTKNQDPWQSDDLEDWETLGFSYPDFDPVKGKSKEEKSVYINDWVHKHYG

[3] = Water solubility (statement); format: physicochemical
Experimental: (§1) The apple slice dishes were placed in an incubator maintained at 20 °C. Kojic acid and PTU were used as positive controls. All samples, except PTU, were prepared as aqueous solutions. PTU test samples were prepared in a DMSO solution as it is only soluble in water at very low concentrations.

freshly-cut apple slices = assay: Anti-browning assay of freshly-cut apple slices; parameters: species or system Malus pumila Miller; settings: for L* value change (ΔL*): 48 h storage time point; for inhibition at 5000 µM: Malus pumila, read-out: inhibition of apple slice browning (relative browning intensity) compared to control
Experimental: Apples (Malus pumila Miller) of similar maturity were purchased from a local market (Emart24®, Busan, Republic of Korea). The apples were cut into small equal-sized pieces (W × D × H, 1.5 ± 0.1 cm × 1.5 ± 0.1 cm × 0.3 ± 0.05 cm). Three apple slices were placed in glass dishes with a diameter of 5 cm.
as §1
At five time points (0, 12, 24, 36, and 48 h), apple slices were photographed using a camera (iPhone 11), and browning colors (a*, b*, and L*) were measured using a CR-10 spectrophotometer (Konica Minolta Sensing, Inc., Osaka, Japan). In the spectrophotometer, the colors were described by a* (redness and greenness), b* (yellowness and blueness), and L* (lightness) values according to the Commission Internationale de l’Eclairage (CIE) color system. The overall color difference (ΔE) was calculated using the following formula: (ΔE)^2 = (a − ainitial)^2 + (b − binitial)^2 + (L − Linitial)^2. In addition, based on the photographs, the relative browning intensities were calculated using CS analyzer 3.2 image analysis software.

[4] = ABTS radical cation scavenging assay; settings: 100 μM test samples
Experimental: The ABTS radical cation-scavenging activities of analogs 1–10 were investigated according to a previously described protocol with minor modifications. Briefly, to prepare a test solution for the ABTS radical cation scavenging activity, potassium persulfate aqueous solution (10 mL, 2.45 mM) was mixed with ABTS aqueous solution (10 mL, 7 mM) and left for 12 h at room temperature in the dark until the absorbance remained constant. Prior to the ABTS radical cation scavenging assay experiments, the absorbance at 734 nm was adjusted to 0.70 ± 0.02 by diluting the ABTS radical cation solution with water. An aliquot (10 µL) of 1–10 or Trolox (the positive reference material) at 100 µM was mixed with the ABTS radical cation solution (90 µL) in each well of a 96-well plate and incubated for 10 min at ambient temperature in the dark. The optical density of each well was measured at 734 nm using a VersaMax® microplate reader. All experiments were performed independently 3 times.
The antioxidant potential of 1–10 was investigated using the ABTS radical cation scavenging technique. ABTS can be easily oxidized to the corresponding radical cation by oxidants such as potassium persulfate. Because of the correlation between melanogenesis and antioxidant activity, the ABTS radical-scavenging ability of 1–10 was examined. […]

[5] = In vitro ROS scavenging assay (SIN-1, DCFH-DA); settings: 40 μM, ROS enhanced by SIN-1
Experimental: At emission and excitation wavelengths of 535 and 485 nm, fluorescence intensity was measured using a fluorescence microplate reader (Berthold Technologies GmbH & Co., Wien, Austria).
Hydrolyzed DCFH reacts with ROS to produce the fluorescent substance dichlorofluorescein (DCF). The ROS-scavenging effects of the analogs were determined by measuring the emitted fluorescence. The in vitro ROS-scavenging effects were measured using 40 μM test samples.

[6] = DPPH radical scavenging assay; settings: 1 mM test samples, 0.5 h
Experimental: The DPPH radical scavenging activities of analogs 1–10 were evaluated according to a previously described protocol to examine the antioxidant effects of analogs 1–10. Briefly, an aliquot (180 µL) of DPPH methanol solution (0.2 mM) was mixed with a 2-MBI analogs’ DMSO (dimethyl sulfoxide) solution in each well of a 96-well plate, and the mixture was left in the dark for 0.5 h at room temperature. The optical density of each well was analyzed using a microplate reader (VersaMax®, Molecular Devices, Sunnyvale, CA, USA).
As the antioxidant ability of a compound may be involved in the inhibition of melanogenesis, the antioxidant effects of analogs 1–10 on DPPH radicals were explored. Vitamin C (L-ascorbic acid), a strong antioxidant, was used as the positive control. After mixing the test sample and DPPH solutions and standing at room temperature in the dark for 0.5 h, the absorbances of the mixed samples were measured at 517 nm using 1 mM test samples.

[7] = 5 mM spray (analogs as sodium salts)
[8] = 5 mM spray every 12 h (analogs as sodium salts), 36 h storage, 20 °C

For `O=C(c1ccccc1)c1ccc2[nH]c(S)nc2c1` [analog 6, (2-Mercapto-1H-benzo[d]imidazol-5-yl)(phenyl)methanone], the “fold more potent than kojic acid, diphenolase activity” value (mushroom tyrosinase [1]) was 970 fold, the “cytotoxicity in HEK-293 cells” value (HEK-293 cells) was “moderately cytotoxic” and the Ki (mushroom tyrosinase [2]) was 8.6 nM. The “mode of tyrosinase inhibition” value (mushroom tyrosinase [2]) was “competitive”.
For `NC(=S)Nc1ccccc1` [PTU, phenylthiourea, reference compound], the water solubility [3] was “poorly soluble in water”, the “L* value change (ΔL*)” value (freshly-cut apple slices; [7]) was 3.4 and the inhibition at 5000 µM (freshly-cut apple slices) was 21.9%.
For `Cc1cccc2[nH]c(S)nc12` [analog 9, 4-Methyl-1H-benzo[d]imidazole-2-thiol], the “ABTS radical cation scavenging activity, inhibition” value [4] was 90% and the inhibition at 5000 µM (freshly-cut apple slices; [8]) was 28.5 to 36.1%.
Work on `Sc1nc2ccccc2[nH]1` [analog 1, 1H-Benzo[d]imidazole-2-thiol] yielded an inhibition at 5000 µM (freshly-cut apple slices) of 28.5 to 36.1%.
For `O=[N+]([O-])c1ccc2[nH]c(S)nc2c1` [analog 7, 5-Nitro-1H-benzo[d]imidazole-2-thiol], the “L* value change (ΔL*)” value (freshly-cut apple slices; [7]) was 1.3.
In the case of `Sc1nc2cc(Cl)ccc2[nH]1` [analog 4, 5-Chloro-1H-benzo[d]imidazole-2-thiol], the “in vitro ROS scavenging effect” value [5] is reported as “most potently reduced”.
For `COc1ccc2[nH]c(S)nc2c1` [analog 5, 5-Methoxy-1H-benzo[d]imidazole-2-thiol], the “L* value change (ΔL*)” value (freshly-cut apple slices; [7]) was 8.2.
In the case of `Cc1cc2nc(S)[nH]c2cc1C` [analog 3, 5,6-Dimethyl-1H-benzo[d]imidazole-2-thiol], the “cytotoxicity in HEK-293 cells” value (HEK-293 cells) is reported as “weakly”.
In the case of `O=C1O[C@H]([C@@H](O)CO)C(O)=C1O` [Vitamin C, L-ascorbic acid], the “DPPH radical scavenging activity, inhibition” value [6] is reported as 98%.
With `N#Cc1ccc2[nH]c(S)nc2c1` [analog 10, 2-Mercapto-1H-benzo[d]imidazole-5-carbonitrile] the Ki (mushroom tyrosinase [2]) was 14.8 nM, the “mode of tyrosinase inhibition” value (mushroom tyrosinase [2]) was “competitive” and the “L* value change (ΔL*)” value (freshly-cut apple slices; [7]) was 3.1. The “overall color difference (ΔE) of apple slices” value (freshly-cut apple slices; 5 mM spray (analogs as sodium salts), over 48 h storage) was “lowest increase in ΔE” and the inhibition at 5000 µM (freshly-cut apple slices; [8]) was 28.5 to 36.1%.
In the case of `O=c1cc(CO)occ1O` [kojic acid, reference compound], the “L* value change (ΔL*)” value (freshly-cut apple slices; [7]) is reported as 6.4 and the inhibition at 5000 µM (freshly-cut apple slices; [8]) is reported as 7%.
For `Cc1c(C)c2c(c(C)c1O)CCC(C)(C(=O)O)O2` (stereo not drawn) [Trolox, reference compound], the “in vitro ROS scavenging effect” value [5] was “greatly reduced” and the “ABTS radical cation scavenging activity, inhibition” value [4] was 96%.
